These results are taken from patent US10670605B2, “Cysteine reactive probes and uses thereof” (The Scripps Research Institute, priority 2015, dated 2020).

Holding throughout (experiment): Competitive isoTOP-ABPP, cell lysates
What all share (format): binding

Experiment [1] concerns the target T1, IRF4 C194 (Q15306) (Homo sapiens, UniProt Q15306).
T1 sequence (Q15306 1-451): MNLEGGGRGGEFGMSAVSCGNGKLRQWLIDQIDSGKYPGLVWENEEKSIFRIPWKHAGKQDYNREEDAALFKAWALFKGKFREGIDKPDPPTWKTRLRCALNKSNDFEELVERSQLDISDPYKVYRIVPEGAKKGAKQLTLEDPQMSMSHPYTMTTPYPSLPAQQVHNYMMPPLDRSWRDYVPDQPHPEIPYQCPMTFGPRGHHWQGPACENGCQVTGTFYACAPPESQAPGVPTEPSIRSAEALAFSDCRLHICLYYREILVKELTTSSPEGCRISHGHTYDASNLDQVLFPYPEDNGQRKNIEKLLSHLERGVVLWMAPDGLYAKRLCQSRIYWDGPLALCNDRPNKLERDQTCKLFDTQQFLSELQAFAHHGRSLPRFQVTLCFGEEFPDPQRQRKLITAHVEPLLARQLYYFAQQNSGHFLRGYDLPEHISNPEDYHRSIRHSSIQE
The conditions noted are these: 500 μm, in-vitro_ramos.

Experiment [2] addresses T2, UBE2S C118 (Q16763) (Homo sapiens, UniProt Q16763).
T2 sequence (Q16763 1-222): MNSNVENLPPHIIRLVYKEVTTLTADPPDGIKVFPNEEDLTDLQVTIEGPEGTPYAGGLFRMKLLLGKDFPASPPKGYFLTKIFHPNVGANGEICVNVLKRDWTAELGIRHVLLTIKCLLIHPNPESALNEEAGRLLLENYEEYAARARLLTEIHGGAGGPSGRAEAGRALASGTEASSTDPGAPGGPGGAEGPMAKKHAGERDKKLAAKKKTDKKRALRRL
As to conditions: 500 μm.

In experiment [3] the target is T3, ACAT1 C119 (P24752) (Homo sapiens, UniProt P24752).
T3 sequence (P24752 34-427): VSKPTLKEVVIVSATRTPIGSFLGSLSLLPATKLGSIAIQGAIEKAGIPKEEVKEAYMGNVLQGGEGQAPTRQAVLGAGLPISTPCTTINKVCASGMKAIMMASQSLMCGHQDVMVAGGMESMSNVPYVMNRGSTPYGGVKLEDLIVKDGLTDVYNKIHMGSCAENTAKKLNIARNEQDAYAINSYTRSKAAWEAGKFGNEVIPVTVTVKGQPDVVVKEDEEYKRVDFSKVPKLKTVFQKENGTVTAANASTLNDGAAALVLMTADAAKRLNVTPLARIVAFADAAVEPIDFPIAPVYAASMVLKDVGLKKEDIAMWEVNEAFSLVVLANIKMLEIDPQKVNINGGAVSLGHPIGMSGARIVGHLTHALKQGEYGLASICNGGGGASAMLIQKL
As to conditions: 500 μm.

Experiment [4] addresses T4, ACAT1 C413 (P24752) (Homo sapiens, UniProt P24752).
T4 sequence (P24752 34-427): T3 sequence (P24752 34-427)
The conditions noted are these: 500 μm.

Experiment [5] addresses T5, ACAT1 C126 (P24752) (Homo sapiens, UniProt P24752).
T5 sequence (P24752 34-427): T3 sequence (P24752 34-427)
As to conditions: 500 μm.

Experiment [6] has as its target T6, IDH2 C308 (P48735) (Homo sapiens, UniProt P48735).
T6 sequence (P48735 40-452): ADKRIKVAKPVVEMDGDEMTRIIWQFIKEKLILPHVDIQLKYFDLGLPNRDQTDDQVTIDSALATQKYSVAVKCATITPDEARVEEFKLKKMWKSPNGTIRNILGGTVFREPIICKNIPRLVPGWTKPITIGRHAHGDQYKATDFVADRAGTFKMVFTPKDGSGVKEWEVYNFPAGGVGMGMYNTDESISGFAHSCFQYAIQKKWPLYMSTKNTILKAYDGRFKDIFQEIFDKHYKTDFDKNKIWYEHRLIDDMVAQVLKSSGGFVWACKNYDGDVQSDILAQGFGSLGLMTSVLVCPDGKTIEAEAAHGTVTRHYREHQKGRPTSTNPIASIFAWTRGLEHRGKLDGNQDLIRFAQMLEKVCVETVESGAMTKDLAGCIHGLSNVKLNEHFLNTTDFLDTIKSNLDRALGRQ
The conditions noted are these: 500 μm, in-vitro_ramos_231.

Regarding `CC(C)(C)c1cc(NC(=O)CCl)on1` [compound 32], the “isoTOP-ABPP reactivity ratio, Q15306_C194” value in experiment [1] is 3.7. Further, the “isoTOP-ABPP reactivity ratio, Q16763_C118” value in experiment [2] (in-vitro_ramos) and in experiment [2] (in-vitro_ramos_231) was 1.1 throughout. In addition, the “isoTOP-ABPP reactivity ratio, P24752_C119” value is recorded as 1.3 in experiment [3] (in-vitro_ramos) and 1.7 in experiment [3] (in-vitro_ramos_231). Further, the “isoTOP-ABPP reactivity ratio, P24752_C413” value in experiment [4] (in-vitro_ramos) worked out at 4.1; in experiment [4] (in-vitro_ramos_231), 6.8. Also, the “isoTOP-ABPP reactivity ratio, P24752_C126” value in experiment [5] (in-vitro_ramos) was 8.6; in experiment [5] (in-vitro_ramos_231), 7.3.
Consider `O=C(CCl)N(Cc1ccc(F)cc1)C12CC3CC(CC(C3)C1)C2` [compound 34], for which the “isoTOP-ABPP reactivity ratio, P24752_C119” value in experiment [3] (in-vitro_ramos_231) is 0.8. For the same compound, the “isoTOP-ABPP reactivity ratio, P24752_C413” value in experiment [4] (in-vitro_ramos) amounted to 1.3; in experiment [4] (in-vitro_ramos_231), 0.9. Also, the “isoTOP-ABPP reactivity ratio, P24752_C126” value in experiment [5] (in-vitro_ramos) is 1.1.
As to `O=C(CCl)Nc1ccccc1C1CCCCCC1` [compound 35], in experiment [1], the “isoTOP-ABPP reactivity ratio, Q15306_C194” value was 1.0. Further, the “isoTOP-ABPP reactivity ratio, P24752_C119” value in experiment [3] (in-vitro_ramos) was determined as 1.0; in experiment [3] (in-vitro_ramos_231), 0.9. In addition, the “isoTOP-ABPP reactivity ratio, P24752_C413” value in experiment [4] (in-vitro_ramos) is reported as 1.3. The “isoTOP-ABPP reactivity ratio, P24752_C126” value in experiment [5] (in-vitro_ramos) is on record as 10.4.
For `C=CC(=O)N1CCC(c2noc3ccc(F)cc23)CC1` [compound 37], the “isoTOP-ABPP reactivity ratio, Q15306_C194” value in experiment [1] came to 0.9. Also, in experiment [3] (in-vitro_ramos), the “isoTOP-ABPP reactivity ratio, P24752_C119” value amounted to 0.8. Moreover, the “isoTOP-ABPP reactivity ratio, P24752_C413” value in experiment [4] (in-vitro_ramos) was found to be 0.9. For the same compound, the “isoTOP-ABPP reactivity ratio, P24752_C126” value in experiment [5] (in-vitro_ramos) turned out to be 0.9.
Consider `C=CC(=O)Nc1cc(C)c(Br)cc1C` [compound 40], for which the “isoTOP-ABPP reactivity ratio, Q15306_C194” value in experiment [1] was found to be 1.1. Further, the results for the “isoTOP-ABPP reactivity ratio, Q16763_C118” value in experiment [2] (in-vitro_ramos) and in experiment [2] (in-vitro_ramos_231) were 0.8 and 0.9, respectively. For the same compound, the “isoTOP-ABPP reactivity ratio, P24752_C119” value in experiment [3] (in-vitro_ramos) turned out to be 0.9; in experiment [3] (in-vitro_ramos_231), 0.8. Further, the “isoTOP-ABPP reactivity ratio, P24752_C413” value in experiment [4] (in-vitro_ramos_231) is recorded as 0.9. In addition, the “isoTOP-ABPP reactivity ratio, P24752_C126” value in experiment [5] (in-vitro_ramos_231) was determined as 0.9.
Consider `Cc1ccc(C=C(C#N)C(=O)NCCN2CCOCC2)cc1` [compound 41], for which, in experiment [1], the “isoTOP-ABPP reactivity ratio, Q15306_C194” value is reported as 1.2. In addition, the “isoTOP-ABPP reactivity ratio, Q16763_C118” value in experiment [2] (in-vitro_ramos) is given as 3.4. Further, the “isoTOP-ABPP reactivity ratio, P24752_C119” value came out at 0.8 in experiment [3] (in-vitro_ramos) and 1.0 in experiment [3] (in-vitro_ramos_231). For the same compound, the “isoTOP-ABPP reactivity ratio, P24752_C413” value in experiment [4] (in-vitro_ramos) was 0.9; in experiment [4] (in-vitro_ramos_231), 0.8. Moreover, the entries for the “isoTOP-ABPP reactivity ratio, P24752_C126” value in experiment [5] (in-vitro_ramos) and in experiment [5] (in-vitro_ramos_231) were 0.9 and 1.0, respectively.
On to `N#CC(=Cc1ccc(-c2ccccc2Cl)o1)C(N)=O` [compound 42], for which the “isoTOP-ABPP reactivity profile ratio, Q15306_C194” value in experiment [1] is recorded as 1.2. The “isoTOP-ABPP reactivity profile ratio, Q16763_C118” value in experiment [2] (in-vitro_ramos) is listed as 0.8. The “isoTOP-ABPP reactivity profile ratio, P24752_C119” value in experiment [3] (in-vitro_ramos) is reported as 0.8. Moreover, the “isoTOP-ABPP reactivity profile ratio, P24752_C413” value in experiment [4] (in-vitro_ramos) is 0.7. The “isoTOP-ABPP reactivity profile ratio, P24752_C126” value in experiment [5] (in-vitro_ramos) worked out at 0.8.
Take `CC1CCc2ccccc2N1C(=O)CCl` (stereo not drawn) [compound 45]: the “isoTOP-ABPP reactivity profile ratio, P48735_C308” value in experiment [6] is 1.0. Further, in experiment [3] (in-vitro_ramos_231), the “isoTOP-ABPP reactivity profile ratio, P24752_C119” value stood at 12.4. In addition, the “isoTOP-ABPP reactivity profile ratio, P24752_C413” value in experiment [4] (in-vitro_ramos_231) is given as 20.0. In addition, the “isoTOP-ABPP reactivity profile ratio, P24752_C126” value in experiment [5] (in-vitro_ramos_231) is reported as 20.0.
Take `O=C(CCl)Nc1cccc2ncccc12` [compound 51]: in experiment [1], the “isoTOP-ABPP reactivity profile ratio, Q15306_C194” value is 1.4. The “isoTOP-ABPP reactivity profile ratio, Q16763_C118” value in experiment [2] (in-vitro_ramos) was determined as 0.9. The figures for the “isoTOP-ABPP reactivity profile ratio, P24752_C119” value in experiment [3] (in-vitro_ramos) and in experiment [3] (in-vitro_ramos_231) were 0.9 and 0.8, respectively. In addition, the “isoTOP-ABPP reactivity profile ratio, P24752_C413” value in experiment [4] (in-vitro_ramos) and in experiment [4] (in-vitro_ramos_231) was 1.0 throughout. Also, the “isoTOP-ABPP reactivity profile ratio, P24752_C126” value in experiment [5] (in-vitro_ramos) is 1.2; in experiment [5] (in-vitro_ramos_231), 1.0.
